Source: the supplement of paper PMC10702517
Structures can show the parent of a compound that is named as a salt. ± gives the standard deviation.

Experiment: chemical recovery from spiked human plasma; higher = better extraction
Conditions: pooled human plasma
[1] = extraction method: SPE only (HLB 96-well)
[2] = extraction method: SPE only (HLB 96-well), PES comparison experiment
[3] = extraction method: solvent precipitation (ACN + hexane)
[4] = extraction method: PES+SPE (3 d PDMS equilibration then HLB SPE)

Compound | chemical recovery [1] [%] | chemical recovery [2] [%] | chemical recovery [3] [%] | chemical recovery [4] [%]
CCCCC(CC)COP(=O)(OCC(CC)CCCC)OCC(CC)CCCC (stereo not given) [Tris(2-ethylhexl)phosphate] | 6.76 ± 2.9 | 4.16 ± 1.6 | 107 ± 4.1 | –
C[C@]12CCC(=O)C=C1[C@H](O)C[C@@H]1[C@@H]2[C@@H](O)C[C@@]2(C)[C@H]1CC[C@]2(O)C(=O)CO [6-beta-Hydroxycortisol] | – | 45.1 ± 7.2 | – | –
CCN(CC)C(=O)c1cccc(C)c1 [DEET] | 30.1 ± 3 | – | 52.6 ± 4.4 | –
Oc1ccc(Cl)c2cccnc12 [5-Chloro-8-hydroxyquinoline] | 12.2 ± 4.9 | – | – | 2.63 ± 3.2
CCOP(=S)(OCC)SCCSCC [Disulfoton] | 4.52 ± 2 | – | – | –
Cc1ccc(OS(=O)(=O)O)cc1 [p-Tolylsulfate] | 91 ± 13 | – | – | –
CC(=O)c1cc(C(C)(C)C)c(O)c(C(C)(C)C)c1 [3,5-Di-tert-butyl-4'-hydroxyacetophenone] | 20.1 ± 4.9 | – | 42.1 ± 2.7 | –
c1cc2c3c(cccc3c1)CC2 [Acenaphthene] | 9.53 ± 0.88 | 3.64 ± 1.1 | – | –
Cn1c(N)nc2ncc(-c3ccccc3)cc21 [2-Amino-1-methyl-6-phenylimidazo[4,5-b]pyridine-(PhIP)] | 45.2 ± 2.2 | – | 70.9 ± 3.6 | 49 ± 2.1
CNC(=O)Oc1cc(C)c(SC)c(C)c1 [Methiocarb] | 32.8 ± 0.78 | 0.163 ± 0.33 | – | 0.0787 ± 0.035
Sc1ncnc2nc[nH]c12 [6-Mercaptopurine] | 0.069 ± 0.0096 | – | 0.144 ± 0.25 | 0.00575 ± 0.005
CN(C)S(=O)(=O)c1ccc(N)cc1 [4-Amino-NN-dimethylbenzenesulfonamide] | 45.4 ± 4.2 | – | 77.3 ± 4 | 51.6 ± 4
N#CSCSc1nc2ccccc2s1 [2-(Thiocyanomethylthio)benzothiazole] | 44.1 ± 2.3 | – | 18.4 ± 10 | –
N#Cc1c[nH]cc1-c1cccc2c1OC(F)(F)O2 [Fludioxonil] | 40.1 ± 3.5 | – | 51.4 ± 2.9 | 67.2 ± 4.7
Clc1ccc(C(c2ccc(Cl)cc2)C(Cl)(Cl)Cl)cc1 [4,4'-DDT] | 3.49 ± 1.1 | – | 56.7 ± 8.1 | 81.7 ± 22
CNC(=C[N+](=O)[O-])NCCSCc1ccc(CN(C)C)o1 [Ranitidine] | – | – | 65.6 ± 6.1 | –
CCCCCCCCCCCCCCCC[N+](C)(C)C [Hexadecyltrimethylammonium] | 50.1 ± 19 | – | – | –
CC(C)c1c(C(=O)Nc2ccccc2)c(-c2ccccc2)c(-c2ccc(F)cc2)n1CC[C@@H](O)C[C@@H](O)CC(=O)O [Atorvastatin] | 30.1 ± 3.9 | 41.1 ± 8.4 | 61.7 ± 3 | 32.2 ± 9.6
CCC(C(N)=O)(C(N)=O)c1ccccc1 [Phenylethylmalonamide] | 37.2 ± 2.4 | 60.3 ± 8.1 | – | 43.1 ± 4.2
CCCCCCCCCCS(=O)(=O)O [1-Decanesulfonic-acid] | 31.5 ± 2.9 | – | 61.5 ± 1.9 | 42 ± 5.2
C/C(=C\c1ccccc1)c1ccccc1 [trans-a-Methylstilben] | 14.3 ± 7.5 | – | – | –
NNc1ccccc1 [Phenylhydrazine] | – | – | 40.7 ± 8.9 | –

Compound | chemical recovery [1] [%] | chemical recovery [2] [%] | chemical recovery [3] [%] | chemical recovery [4] [%]
CC1(C(=O)Nc2ccc(O)c(Cl)c2Cl)CCCCC1 [Fenhexamid] | – | – | 66.2 ± 1.5 | –
OC[C@H]1O[C@H](O[C@]2(CCl)O[C@H](CCl)[C@@H](O)[C@@H]2O)[C@H](O)[C@@H](O)[C@H]1Cl [Sucralose] | 21.6 ± 1.4 | 58.3 ± 3.9 | – | 23 ± 2.4
Nc1ccc(Cc2ccc(N)cc2)cc1 [4,4'-Methylenedianiline] | 9.55 ± 0.81 | – | 31.9 ± 11 | –
CCN(CC)c1ccccc1 [N,N-Diethylaniline] | 5.76 ± 3.4 | – | 0.0912 ± 0.079 | 0.987 ± 1.6
CSC1=N[C@@](C)(c2ccccc2)C(=O)N1Nc1ccccc1 [Fenamidone] | 57.8 ± 2.2 | – | 79.4 ± 2.9 | 60.6 ± 12
CC1NC(C)(C)COC1(O)c1cccc(Cl)c1 [(S,S)-Hydroxybupropion] | 36.3 ± 2.2 | – | 59.9 ± 3.2 | 5.72 ± 0.93
CC1(C)C(C=C(Cl)Cl)C1C(=O)OCc1cccc(Oc2ccccc2)c1 (stereo not given) [Permethrin] | 2.59 ± 1 | – | 35.4 ± 3.1 | 55 ± 9.7
Cc1cc(-c2ccc(N)c(C)c2)ccc1N [3,3'-Dimethylbenzidine] | 37.1 ± 6.7 | 20.3 ± 2.9 | 61.7 ± 6.9 | –
Cc1ccc2ccc3cccc4ccc1c2c34 [1-Methylpyrene] | 3.46 ± 0.94 | – | 34 ± 4 | –
c1ccc2c(c1)[nH]c1ncccc12 [Carboline] | 40.3 ± 2.9 | – | 72.2 ± 3.8 | 28 ± 5.2
N[C@@H](Cc1cc(I)c(Oc2cc(I)c(O)c(I)c2)c(I)c1)C(=O)O [L-Thyroxine] | 36.5 ± 3.8 | – | 30.8 ± 3.3 | 50.6 ± 7.1
Cc1ccc2c(c1)c1cccc3ccc4cccc2c4c31 [10-Methylbenzo[e]pyrene] | 0.0979 ± 0.085 | – | 10.9 ± 1.3 | –
CC[C@H](C)[C@H]1O[C@]2(C=C[C@@H]1C)C[C@@H]1C[C@@H](C/C=C(\C)[C@@H](O[C@H]3C[C@H](OC)[C@@H](O[C@H]4C[C@H](OC)[C@@H](NC)[C@H](C)O4)[C@H](C)O3)[C@@H](C)/C=C/C=C3\CO[C@@H]4[C@H](O)C(C)=C[C@@H](C(=O)O1)[C@]34O)O2 [Emamectin-B1a] | 17.2 ± 7.2 | – | – | –
COc1cc(OC)nc(NC(=O)NS(=O)(=O)c2cc(NC=O)ccc2C(=O)N(C)C)n1 [Foramsulfuron] | – | – | 69 ± 4.2 | –
O=P(O)(OCCC(F)(F)C(F)(F)C(F)(F)C(F)(F)C(F)(F)C(F)(F)F)OCCC(F)(F)C(F)(F)C(F)(F)C(F)(F)C(F)(F)C(F)(F)F [6.2-Fluorotelomerphosphate-diester] | 7.04 ± 2.1 | – | – | –
CCCC[N+](CCCC)(CCCC)CCCC [Tetrabutylammonium] | 43 ± 3.8 | – | – | –
CCC(C)n1c(=O)[nH]c(C)c(Br)c1=O (stereo not given) [Bromacil] | 49.3 ± 3 | – | 72.7 ± 2.8 | 64.5 ± 4.7
Cc1c(C=O)c(=O)n(-c2ccccc2)n1C [4-Formyl-antipyrine] | 34.4 ± 4.1 | – | 69.5 ± 2.1 | 41.3 ± 3.5
CC[C@H](C)[C@H]1O[C@]2(CC[C@@H]1C)C[C@@H]1C[C@@H](C/C=C(\C)[C@@H](O[C@H]3C[C@H](OC)[C@@H](O[C@H]4C[C@H](OC)[C@@H](O)[C@H](C)O4)[C@H](C)O3)[C@@H](C)/C=C/C=C3\CO[C@@H]4[C@H](O)C(C)=C[C@@H](C(=O)O1)[C@]34O)O2 [Ivermectin B1a] | – | 16.6 ± 4.9 | – | –
COC(=O)CC(O)(CC(=O)OC)C(=O)OC [Trimethylcitrate] | 30.7 ± 4.5 | – | 12.5 ± 2.5 | 24.5 ± 2.7
COc1cc(C)c(C(=O)c2c(OC)ccc(Br)c2C)c(OC)c1OC [Metrafenone] | 50.3 ± 9.1 | – | 76.4 ± 4.6 | –
CC(=O)OCC(=O)[C@@]1(O)CC[C@H]2[C@@H]3CCC4=CC(=O)CC[C@]4(C)[C@@]3(F)[C@@H](O)C[C@@]21C [Fludrocortisone-21-acetate] | – | 46.7 ± 4.8 | – | –

Compound | chemical recovery [1] [%] | chemical recovery [2] [%] | chemical recovery [3] [%] | chemical recovery [4] [%]
CCNc1nc(NC(C)(C)C)[nH]c(=O)n1 [Terbuthylazine-2-hydroxy] | 35.5 ± 3.4 | 43.6 ± 5.5 | 76.7 ± 3.9 | 41.4 ± 3.8
CCC(C)(c1ccc(O)cc1)c1ccc(O)cc1 [Bisphenol-B] | 45.4 ± 1.4 | – | 49.7 ± 3.2 | 63.4 ± 2
c1ccc2[nH]ccc2c1 [Indole] | 8.76 ± 5.2 | – | 52.5 ± 14 | –
Cc1cc(O)cc(C)c1[S+](C)[O-] (stereo not given) [Methiocarb-sulfoxide-phenol] | 47.4 ± 5.3 | – | 73.1 ± 4.4 | 71.6 ± 6.9
Cc1c(N(C)C)c(=O)n(-c2ccccc2)n1C [Dimethylaminophenazone] | 39.3 ± 2.3 | – | 73.8 ± 2 | 6.91 ± 1.9
O=C(Nc1ccc(F)cc1F)c1cccnc1Oc1cccc(C(F)(F)F)c1 [Diflufenican] | 31 ± 3.5 | 35.6 ± 6.6 | 52.3 ± 4.8 | –
NCCc1ccccc1 [Phenethylamine] | 6.63 ± 4.2 | – | 47.1 ± 1.7 | –
CC(C)N1C(=O)c2cc(O)ccc2NS1(=O)=O [6-Hydroxybentazone] | 33.9 ± 7.6 | – | 70.3 ± 3.6 | 29 ± 4
O=S(=O)(O)C(F)(F)C(F)(F)C(F)(F)C(F)(F)C(F)(F)C(F)(F)C(F)(F)C(F)(F)F [Perfluorooctanesulfonic acid] | 26.8 ± 0.38 | – | – | –
O=C(O)CCCCCCCC(=O)O [Azelaic-acid] | 53.1 ± 4 | – | – | –
CC(C)CCCCCCOC(=O)c1ccccc1C(=O)OCCCCCCC(C)C [Diisononyl-phthalate] | 23.4 ± 7.7 | – | – | –
CC(C)(C)c1cc([N+](=O)[O-])cc([N+](=O)[O-])c1O [Dinoterb] | – | – | – | 48.5 ± 5
Nc1nc2c(ncn2COCC(=O)O)c(=O)[nH]1 [Carboxy-aciclovir] | 1.5 ± 1.3 | – | – | –
Cc1cccc(C)c1N [2,6-Xylidine] | 7.08 ± 5 | – | 48 ± 3.5 | –
CC(C)(C)c1cc(-n2nc3ccc(Cl)cc3n2)c(O)c(C(C)(C)C)c1 [UV-327] | 1.82 ± 1.6 | – | – | –
COCCOCCOCCOC [Triglyme] | 24.9 ± 4.5 | – | – | –
O=S(=O)(O)C(F)(F)C(F)(F)C(F)(F)C(F)(F)F [Perfluorobutanesulfonic-acid] | 45.3 ± 3.3 | – | 81.9 ± 2.1 | 49.5 ± 3.7
CCCCC(CC)COP(=O)(Oc1ccccc1)Oc1ccccc1 (stereo not given) [2-Ethylhexyldiphenylphosphate] | 38.9 ± 8.9 | – | – | –
CCN(CC)c1ccc2c(C)cc(=O)oc2c1 [7-Diethylamino-4-methylcoumarin] | 94 ± 5.9 | 47.7 ± 7.5 | 78.3 ± 2.5 | 65.9 ± 13
CCCCCCCCCCCCOS(=O)(=O)O [Dodecyl sulfate] | 33.8 ± 0.79 | – | – | –
CCCCC(CC)COC(=O)c1ccc(N(C)C)cc1 (stereo not given) [Padimate-O] | 22.8 ± 4.1 | – | – | –
CC(C)(c1ccc(O)cc1)c1ccc(O)cc1 [Bisphenol-A] | 45.4 ± 3.8 | – | – | 69.8 ± 4.4
